Structures are written as SMILES. ± gives the expanded uncertainty stated by the source.

Our source for the mass density and refractive index values is the NIST ThermoML archive (doi:10.1016/j.tca.2015.08.023).

For series [1] the following is noted: 101.33 kPa, Liquid, Vibrating tube method.
Series [2] can be described thus: refractive index (Na D-line) (dimensionless). Particulars: 101.33 kPa, Liquid, Standard Abbe refractometry.

Broadly, the mass density is mass per unit of volume. A word on the refractive index: it is the speed of light in vacuum divided by its phase velocity in the sample. Turning to `CCc1ccccc1` [ethylbenzene], the mass density was 862.7 ± 2 kg/m3 in series [1] (298.15 K), 853.8 ± 2 kg/m3 in series [1] (308.15 K) and 844.8 ± 2 kg/m3 in series [1] (318.15 K). In addition, the refractive index in series [2] (298.15 K) came to 1.4928 ± 0.0005; in series [2] (308.15 K) it was 1.4879 ± 0.0005; in series [2] (318.15 K) it was 1.4832 ± 0.0005.
Turning to `CCCCCCCC` [octane], the figures for the mass density in series [1] (298.15 K), in series [1] (308.15 K) and in series [1] (318.15 K) were 698.6 ± 2 kg/m3, 690.5 ± 2 kg/m3 and 682.2 ± 2 kg/m3, respectively. Further, the refractive index in series [2] (298.15 K) is on record as 1.3948 ± 0.0005; in series [2] (308.15 K), 1.3904 ± 0.0005; in series [2] (318.15 K), 1.3868 ± 0.0005.
For the compound `CCCc1ccccc1` [propylbenzene], the figures for the mass density in series [1] (298.15 K), in series [1] (308.15 K) and in series [1] (318.15 K) were 857.9 ± 2.1 kg/m3, 849.4 ± 2.1 kg/m3 and 840.9 ± 2.1 kg/m3, respectively. Further, the figures for the refractive index in series [2] (298.15 K), in series [2] (308.15 K) and in series [2] (318.15 K) were 1.4892 ± 0.0006, 1.4844 ± 0.0006 and 1.48 ± 0.0006, respectively.
